Data from patent publication US20240109918A1, “HETEROCYCLIC COMPOUNDS AND USES THEREOF” (Kumquat Biosciences Inc., priority 2022, published 2024).

Columns and labels:
[1] = target: T1, KRASwt (Homo sapiens, UniProt P01116); experiment: Bio-Biochem-PPI-HTRF Ras-SOS1 interaction assay (KRAS wt); type: biochemical; conditions: 5 nM
T1 construct: made in house; host or cells: E. coli BL21 (DE3)
Method in brief: (§1)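 Compounds tested in duplicate (10 μM to 0.01 μM) for disruption of His-hSOS1 binding to GST-tagged wild-type or G12D K-Ras in HEPES pH 7.4 buffer. TR-FRET read (Eu donor, XL665 acceptor) after about 10 min or longer; IC50 derived from the 665/620 nm emission ratio.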

[2] = target: T2, KRASG12D (Homo sapiens, UniProt P01116, G12D); experiment: Bio-Biochem-PPI-HTRF Ras-SOS1 interaction assay (KRAS G12D); type: biochemical; conditions: 5 nM
T2 construct: made in house; host or cells: E. coli BL21 (DE3)
T2 sequence (P01116 1-188 isoform P01116-2 G12D): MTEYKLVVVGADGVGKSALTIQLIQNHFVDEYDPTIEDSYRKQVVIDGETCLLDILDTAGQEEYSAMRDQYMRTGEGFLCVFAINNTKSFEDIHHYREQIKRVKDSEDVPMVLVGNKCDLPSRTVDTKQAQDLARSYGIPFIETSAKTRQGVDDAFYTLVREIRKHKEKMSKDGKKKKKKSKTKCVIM
Method in brief: as §1

T1 sequence (P01116 1-188 isoform P01116-2): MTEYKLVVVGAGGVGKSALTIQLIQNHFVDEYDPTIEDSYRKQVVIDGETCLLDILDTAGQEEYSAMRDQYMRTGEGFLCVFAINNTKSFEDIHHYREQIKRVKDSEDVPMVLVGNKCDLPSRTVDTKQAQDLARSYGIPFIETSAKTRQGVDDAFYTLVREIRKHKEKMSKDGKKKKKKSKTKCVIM

Compound | IC50 [1] [µM] | IC50 [2] [µM]
N#Cc1c(N)sc2c(F)ccc(-c3c(Cl)cc4c(N5CCC(F)(F)CC6(CN(C(=O)[C@@H]7C[C@H]7C#N)C6)C5)nc(OC[C@@]56CCCN5C[C@H](F)C6)nc4c3F)c12 [compound 342, 2-amino-4-(6-chloro-4-(2-((1R,2R)-2-cyanocyclopropane-1-carbonyl)-9,9-difluoro-2,6-diazaspiro[3.6]decan-6-yl)-8-fluoro-2-(((2R,7aS)-2-fluorotetrahydro-1H-pyrrolizin-7a(5H)-yl)methoxy)quinazolin-7-yl)-7-fluorobenzo[b]thiophene-3-carbonitrile] | < 5 | < 5
N#Cc1c(N)sc2c(F)ccc(-c3c(Cl)cc4c(N5CCC(CO)CC6(CN(C(=O)[C@@H]7CC7(F)F)C6)C5)nc(OC[C@@]56CCCN5C[C@H](F)C6)nc4c3F)c12 (stereo partly drawn) [compound 332, 2-amino-4-(6-chloro-4-(2-((S)-2,2-difluorocyclopropane-1-carbonyl)-9-(hydroxymethyl)-2,6-diazaspiro[3.6]decan-6-yl)-8-fluoro-2-(((2R,7aS)-2-fluorotetrahydro-1H-pyrrolizin-7a(5H)-yl)methoxy)quinazolin-7-yl)-7-fluorobenzo[b]thiophene-3-carbonitrile] | < 5 | < 5
Nc1nc2c(-c3c(Cl)cc4c(N5CCC6(CC5)CN(C(=O)C(F)F)C6)nc(OC[C@@]56CCCN5C[C@H](F)C6)nc4c3F)ccc(F)c2s1 [compound 139, 1-(7-(7-(2-amino-7-fluorobenzo[d]thiazol-4-yl)-6-chloro-8-fluoro-2-(((2R,7aS)-2-fluorotetrahydro-1H-pyrrolizin-7a(5H)-yl)methoxy)quinazolin-4-yl)-2,7-diazaspiro[3.5]nonan-2-yl)-2,2-difluoroethan-1-one] | < 5 | < 5
N#Cc1c(N)sc2c(F)ccc(-c3c(Cl)cc4c(N5CCCCC6(CN(C(=O)N7CCCC7)C6)C5)nc(OC[C@@]56CCCN5C[C@H](F)C6)nc4c3F)c12 [compound 231, 2-amino-4-(6-chloro-8-fluoro-2-(((2R,7aS)-2-fluorotetrahydro-1H-pyrrolizin-7a(5H)-yl)methoxy)-4-(2-(pyrrolidine-1-carbonyl)-2,6-diazaspiro[3.6]decan-6-yl)quinazolin-7-yl)-7-fluorobenzo[b]thiophene-3-carbonitrile] | < 5 | < 5
N#Cc1c(N)sc2c(F)ccc(-c3c(Cl)cc4c(N5CC6(CN(C(=O)C7CC7(F)F)C6)C5)nc(OC[C@@]56CCCN5C[C@H](F)C6)nc4c3F)c12 (stereo partly drawn) [compound 219, 2-amino-4-(6-chloro-4-(6-(2,2-difluorocyclopropane-1-carbonyl)-2,6-diazaspiro[3.3]heptan-2-yl)-8-fluoro-2-(((2R,7aS)-2-fluorotetrahydro-1H-pyrrolizin-7a(5H)-yl)methoxy)quinazolin-7-yl)-7-fluorobenzo[b]thiophene-3-carbonitrile] | < 5 | < 5
N#Cc1c(N)sc2c(F)ccc(-c3c(Cl)cc4c(N5CCOC6(CN(C(=O)c7ccnn7C(F)(F)F)C6)C5)nc(OC[C@@]56CCCN5C[C@H](F)C6)nc4c3F)c12 [compound 265, 2-amino-4-(6-chloro-8-fluoro-2-(((2R,7aS)-2-fluorotetrahydro-1H-pyrrolizin-7a(5H)-yl)methoxy)-4-(2-(1-(trifluoromethyl)-1H-pyrazole-5-carbonyl)-5-oxa-2,8-diazaspiro[3.5]nonan-8-yl)quinazolin-7-yl)-7-fluorobenzo[b]thiophene-3-carbonitrile] | < 5 | < 5
C[C@@H](O)C(=O)N1CC2(CCCCN(c3nc(OC[C@@]45CCCN4C[C@H](F)C5)nc4c(F)c(-c5ccc(F)c6sc(N)c(C#N)c56)c(Cl)cc34)C2)C1 [compound 243, 2-amino-4-(6-chloro-8-fluoro-2-(((2R,7aS)-2-fluorotetrahydro-1H-pyrrolizin-7a(5H)-yl)methoxy)-4-(2-((R)-2-hydroxypropanoyl)-2,6-diazaspiro[3.6]decan-6-yl)quinazolin-7-yl)-7-fluorobenzo[b] thiophene-3-carbonitrile] | < 5 | < 5
N#Cc1c(N)sc2c(F)ccc(-c3c(Cl)cc4c(N5CCOC6(CN(C(=O)C7(C(F)F)COC7)C6)C5)nc(OC[C@@]56CCCN5C[C@H](F)C6)nc4c3F)c12 [compound 252, 2-amino-4-(6-chloro-4-(2-(3-(difluoromethyl)oxetane-3-carbonyl)-5-oxa-2,8-diazaspiro[3.5]nonan-8-yl)-8-fluoro-2-(((2R,7aS)-2-fluorotetrahydro-1H-pyrrolizin-7a(5H)-yl)methoxy)quinazolin-7-yl)-7-fluorobenzo[b]thiophene-3-carbonitrile] | < 5 | < 5
N#Cc1c(N)sc2c(F)ccc(-c3c(Cl)cc4c(N5CCOC6(CN(C(=O)C(F)Cl)C6)C5)nc(OC[C@@]56CCCN5C[C@H](F)C6)nc4c3F)c12 (stereo partly drawn) [compound 200, 2-amino-4-(6-chloro-4-(2-(2-chloro-2-fluoroacetyl)-5-oxa-2,8-diazaspiro[3.5]nonan-8-yl)-8-fluoro-2-(((2R,7aS)-2-fluorotetrahydro-1H-pyrrolizin-7a(5H)-yl)methoxy)quinazolin-7-yl)-7-fluorobenzo[b]thiophene-3-carbonitrile] | < 5 | < 5
N#Cc1c(N)sc2c(F)ccc(-c3c(Cl)cc4c(N5CCCCC6(CN(C(=O)[C@@H]7CCOC7)C6)C5)nc(OC[C@@]56CCCN5C[C@H](F)C6)nc4c3F)c12 [compound 230, 2-amino-4-(6-chloro-8-fluoro-2-(((2R,7aS)-2-fluorotetrahydro-1H-pyrrolizin-7a(5H)-yl)methoxy)-4-(2-((R)-tetrahydrofuran-3-carbonyl)-2,6-diazaspiro[3.6]decan-6-yl)quinazolin-7-yl)-7-fluorobenzo[b]thiophene-3-carbonitrile] | < 5 | < 5
N#Cc1c(N)sc2c(F)ccc(-c3c(Cl)cc4c(N5CCCCC6(CN(C(=O)CC7CCO7)C6)C5)nc(OC[C@@]56CCCN5C[C@H](F)C6)nc4c3F)c12 (stereo partly drawn) [compound 203, 2-amino-4-(6-chloro-8-fluoro-2-(((2R,7aS)-2-fluorotetrahydro-1H-pyrrolizin-7a(5H)-yl)methoxy)-4-(2-(2-(oxetan-2-yl)acetyl)-2,6-diazaspiro[3.6]decan-6-yl)quinazolin-7-yl)-7-fluorobenzo[b]thiophene-3-carbonitrile] | < 5 | < 5
N#Cc1c(N)sc2c(F)ccc(-c3c(Cl)cc4c(N5CCCCC6(C5)CN(S(=O)(=O)C5CC5)C6)nc(OC[C@@]56CCCN5C[C@H](F)C6)nc4c3F)c12 [compound 195, 2-amino-4-(6-chloro-4-(2-(cyclopropylsulfonyl)-2,6-diazaspiro[3.6]decan-6-yl)-8-fluoro-2-(((2R,7aS)-2-fluorotetrahydro-1H-pyrrolizin-7a(5H)-yl)methoxy)quinazolin-7-yl)-7-fluorobenzo[b]thiophene-3-carbonitrile] | < 5 | < 5
C#Cc1c(F)ccc2cc(O)cc(-c3ncc4c(N5CCCC6(CNC6)C5)nc(O[C@@H](C)[C@@H]5CCCN5C)nc4c3F)c12 [compound 152, 5-ethynyl-6-fluoro-4-(8-fluoro-2-((S)-1-((S)-1-methylpyrrolidin-2-yl)ethoxy)-4-(2,6-diazaspiro[3.5]nonan-6-yl)pyrido[4,3-d]pyrimidin-7-yl)naphthalen-2-ol] | < 5 | ≥ 5
CN(C)C/C=C/C(=O)N1CC2(C1)CN(c1nc(OC[C@@]34CCCN3C[C@H](F)C4)nc3c(F)c(-c4ccc(F)c5sc(N)nc45)c(Cl)cc13)CCO2 [compound 178, (E)-1-(8-(7-(2-amino-7-fluorobenzo[d]thiazol-4-yl)-6-chloro-8-fluoro-2-(((2R,7aS)-2-fluorotetrahydro-1H-pyrrolizin-7a(5H)-yl)methoxy)quinazolin-4-yl)-5-oxa-2,8-diazaspiro[3.5]nonan-2-yl)-4-(dimethylamino)but-2-en-1-one] | < 5 | < 5
N#Cc1c(N)sc2c(F)ccc(-c3c(Cl)cc4c(N5CCOC6(CNC6)C5)nc(OC[C@@]56CCCN5C[C@H](F)C6)nc4c3F)c12 [compound 175, 2-amino-4-(6-chloro-8-fluoro-2-(((2R,7aS)-2-fluorotetrahydro-1H-pyrrolizin-7a(5H)-yl)methoxy)-4-(5-oxa-2,8-diazaspiro[3.5]nonan-8-yl)quinazolin-7-yl)-7-fluorobenzo[b]thiophene-3-carbonitrile] | < 5 | < 5
C[C@H](Oc1nc(N2CCOC3(CNC3)C2)c2cc(Cl)c(-c3ccc(F)c4sc(N)c(C#N)c34)c(F)c2n1)[C@@H]1CCCN1C [compound 110, 2-amino-4-(6-chloro-8-fluoro-2-((S)-1-((S)-1-methylpyrrolidin-2-yl)ethoxy)-4-(5-oxa-2,8-diazaspiro[3.5]nonan-8-yl)quinazolin-7-yl)-7-fluorobenzo[b]thiophene-3-carbonitrile] | < 5 | < 5
CN1CCC[C@H]1COc1nc(N2CCOC3(CNC3)C2)c2cc(Cl)c(-c3ccc(F)c4sc(N)c(C#N)c34)c(F)c2n1 (single isomer, unassigned) [compound 114] | < 5 | < 5
N#Cc1c(N)sc2c(F)ccc(-c3c(Cl)cc4c(N5CC(O)CCC6(CN(C(=O)[C@@H]7CC7(F)F)C6)C5)nc(OC[C@@]56CCCN5C[C@H](F)C6)nc4c3F)c12 (stereo partly drawn) [compound 275, 2-amino-4-(6-chloro-4-(2-((S)-2,2-difluorocyclopropane-1-carbonyl)-8-hydroxy-2,6-diazaspiro[3.6]decan-6-yl)-8-fluoro-2-(((2R,7aS)-2-fluorotetrahydro-1H-pyrrolizin-7a(5H)-yl)methoxy)quinazolin-7-yl)-7-fluorobenzo[b]thiophene-3-carbonitrile] | < 5 | < 5
